From ChEMBL document CHEMBL3045759, “Synthesis of a New 1, 2, 4-Oxadiazol-5-one Derivative, KC10017, and Its Controlling Activity against Rice Blast Disease Caused by Magnaporthe grisea” (J Pestic Sci, 2002)
The source made the active and inactive calls. The calls are words filed in the database; no cut-off is given here.

Legend:
[1] = system: Pyricularia grisea; experiment: microbe, parasite or virus in culture; type: functional; conditions: P-2
[2] = system: Blumeria hordei; experiment: Fungicidal activity against Blumeria graminis f. sp. hordei assessed as control of barley powdery mildew at 50 ug/ml; type: functional, organism-based
[3] = system: Pyricularia grisea; experiment: microbe, parasite or virus in culture; type: functional; conditions: P-2; remark: listed apart in the source
[4] = system: Pyricularia grisea; experiment: Fungicidal activity against Magnaporthe grisea P-2 in rice plant assessed as control of rice blast disease at 50 ug/ml; type: functional, organism-based
[5] = system: Pyricularia grisea; experiment: Fungicidal activity against Magnaporthe grisea P-2 in rice plant assessed as control of rice blast disease at 0.5 ug/ml at 26 +/- 2 degC measured after 5 days; type: functional, organism-based
[6] = system: Botrytis cinerea; experiment: Fungicidal activity against Botryotinia fuckeliana assessed as control of cucumber gray mold disease at 50 ug/ml; type: functional, organism-based
[7] = system: Pyricularia grisea; experiment: microbe, parasite or virus in culture; type: functional; conditions: P-2; remark: listed apart in the source
[8] = system: Puccinia triticina; experiment: Fungicidal activity against Puccinia triticina assessed as control of wheat leaf rust disease at 50 ug/ml; type: functional, organism-based
[9] = system: Phytophthora infestans; experiment: Fungicidal activity against Phytophthora infestans assessed as control of tomato late blight disease at 50 ug/ml; type: functional, organism-based
[10] = system: Pyricularia grisea; experiment: microbe, parasite or virus in culture; type: functional; conditions: P-2; remark: listed apart in the source
[11] = system: Pyricularia grisea; experiment: Fungicidal activity against Magnaporthe grisea P-2 in rice plant assessed as control of rice blast disease at 100 ug/ml measured after 14 days of treatment at 26 +/- 2 degC measured afterr 5 days; type: functional, organism-based
[12] = system: Rhizoctonia solani; experiment: Fungicidal activity against Rhizoctonia solani assessed as control of rice sheath blight disease at 50 ug/ml; type: functional, organism-based
[13] = system: Pyricularia grisea; experiment: Inhibition of mycelial growth of Magnaporthe grisea P-2 assessed as mycelial dry weight at 0.1 to 100 ug/ml at 25 degC; type: functional, organism-based
[14] = Lipophilicity, log P of the compound; type: physicochemical; conditions: octanol/water

Row | Compound | inhibition at 10 µg/mL [1] | Activity [2] | inhibition at 1 µg/mL [3] | Activity [4] | Activity [5] | Activity [6] | inhibition at 10 µg/mL [7] | Activity [8] | Activity [9] | inhibition at 1 µg/mL [10] | Activity [11] | Activity [12] | inhibition [13] | logP [14]
1 | Cc1cccc(NC(=O)Cn2c(COc3c(C)cc(Br)cc3C)noc2=O)c1 | 0% | inactive | 0% | Active | Active | inactive | 0% | inactive | inactive | 2.9% | Active | inactive | inactive | 6.01
2 | CCOP(=O)(Sc1ccccc1)Sc1ccccc1 [EDIFENPHOS] |  |  | 44.8% |  |  |  | 100% |  |  | 76.4% |  |  |  | 
3 | CN(CC[C@H](N)CC(=O)N[C@H]1C=C[C@H](n2ccc(N)nc2=O)O[C@@H]1C(=O)O)C(=N)N [BLASTICIDIN_S] |  |  | 25.2% |  |  |  | 100% |  |  | 76.6% |  |  |  | 
4 | Cc1cccc2sc3nncn3c12 [TRICYCLAZOLE] | 0% |  | 0% |  |  |  | 7.2% |  |  | 3.8% |  |  |  | 
